{
  "source": "paper PMC6915728",
  "about": "(Nature Communications, 2019)",
  "key": {"[1]": {"test_system": "E. coli K12 BW25113 carrying the pooled ASKA overexpression plasmid library (~4400 ORFs)", "test": "Chemical-genetic profiling: pooled competitive growth of the ASKA gene-overexpression library with and without AMP, deep sequencing readout", "format": "cell-based, Escherichia coli", "from_the_text": "We generated chemical-genetic interaction profiles for a diverse set of AMPs (Table 1) by screening them against a comprehensive library of gene overexpressions in E. coli[21]. Increasing gene dosage is a widely applied approach to reveal the targets of small-molecule antibiotics[22],[23]. It also informs on the ‘latent resistome’, that is, the collection of genes where a change from native expression level enhances resistance to a particular drug[24]. We applied a sensitive competition assay by monitoring growth of a pooled plasmid library, overexpressing all the E. coli ORFs (Fig. 1a), as we reported earlier. Specifically, E. coli cells carrying the pooled plasmid collection were grown in the presence or absence of one of the 15 AMPs tested, at a sub-inhibitory concentration that increased the doubling time of the whole population by 2-fold. Following 12 generations of growth, the plasmid pool was isolated from each selection and the relative abundance of each plasmid was determined by a deep sequencing readout (see Methods).\nWe carried out chemical-genetic profiling to determine the impact of the overexpression of each E. coli ORF on bacterial susceptibility to each of the 15 different AMPs. To this end, we used the complete set of E. coli K-12 Open Reading Frame Archive (ASKA) plasmid library (GFP minus) where each E. coli ORF is cloned into a high copy number expression plasmid (pCA24N-ORFGFP(-)). Prior to screening, the ASKA library was grown in the original host strain E. coli K-12 AG1 in 96-well plates (growth conditions: 37 °C, 280 rpm, LB medium). An equal aliquot of each member of the ASKA library (each well of the 96-well plates) was pooled together and the plasmid DNA (pCA24N-ORF-GFP(-)) was isolated and transformed into E. coli K12 BW25113 strain[51]. To obtain a negative control strain not having any overexpressed gene, the plasmid without a cloned ORF (pCA24N-noORF) was also transformed into the same E. coli strain. Then, on the pooled collection, we applied a previously reported competitive growth assay. Specifically, the pooled overexpression library and the control strain were grown in parallel in MS medium supplemented with 20 µg per ml chloramphenicol and the overexpression was induced by 100 µM isopropyl-ß-D-thiogalactopyranoside (IPTG). After 1 h induction, ~5 × 10^5 bacterial cells from the library were inoculated into each well of a 96-well microtiter plate containing a concentration gradient of an AMP in the MS medium supplemented with 20 µg per ml chloramphenicol and 100 µM IPTG. At the same time, both the library and the control strain with the empty plasmid were grown in the absence of any AMPs. We took special care to grow both of these samples in the exact same conditions as the samples in the presence of AMPs. Bacterial growth was monitored in a microplate reader (Biotek Synergy 2) for 24 h. At the end of the exponential growth phase, we selected those wells in which the doubling time of the cell population was increased by 2-fold. Then, from these wells, cells were split into four equal proportion and each was transferred into 20 mL of MS medium supplemented with the corresponding AMP in four different concentrations in the range that slowed down growth by two-fold in the microtitre plate. […] The rationale for this 2-step process was to maintain competition in exponential phase for 12 generations of growth, efficiently control the growth rate in a reproducible manner and obtain the plasmid pool with standard DNA isolation protocol (innuPREP plasmid mini Kit, Analytik Jena AG) in a yield that is enough for the downstream analysis. The cultures were vigorously shaken along the entire protocol to make sure that the cultures are completely homogeneous and therefore biasing interactions between clones (such as trans-resistance) was minimized. […]"}, "[2]": {"test_system": "E. coli BW25113 overexpression strains (ASKA plasmids)", "test": "Minimum inhibitory concentration (MIC), serial broth dilution, single-gene overexpression strains vs empty-vector control", "format": "cell-based, Escherichia coli", "conditions": "for Relative MIC: broth dilution, MS medium, 100 µM IPTG, 30 °C, 20-24 h, OD600, 3 replicates", "how_it_was_run": "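E. coli overexpression strains grown in MS medium with chloramphenicol, induced with 100 µM IPTG for 1 h at 30 °C, then about half-million cells inoculated into 12-step AMP dilutions (typically 1.2-fold steps). OD600 read after 20–24 h at 30 °C with shaking; triplicate strains compared with empty-vector control.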"}, "[3]": {"test_system": "E. coli gene overexpression", "conditions": "cited from earlier work", "from_the_text": "Supplement 41467_2019_13618_MOESM1_ESM.docx, table 1: Supplementary Table 1. Collected examples of E. coli gene overexpression from the literature as a confirmation of our chemical-genetic screen results. | column: Overexpression phenotype"}, "[4]": {"conditions": "overexpression strain cvpA, MIC of overexpression strain / MIC of empty-plasmid control"}, "[5]": {"conditions": "overexpression strain gadW, MIC of overexpression strain / MIC of empty-plasmid control"}, "[6]": {"conditions": "overexpression strain mzrA, MIC of overexpression strain / MIC of empty-plasmid control"}, "[7]": {"conditions": "overexpression strain nikB, MIC of overexpression strain / MIC of empty-plasmid control"}, "[8]": {"conditions": "overexpression strain uhpC, MIC of overexpression strain / MIC of empty-plasmid control"}},
  "note": "Read-outs that look alike come from different tables or passages of the source.",
  "data": [
    {"sequence": "TSSPPAAVVVRRRRRRRRRRRRRRRRRRR [PROA, Protamine, source herring, purchased from Sigma-Aldrich; cluster C3]", "values": [
      {"measurement": "Overexpression phenotype, Chemical-genetic profile", "setting": "[1]; gene nlpE, whether the literature phenotype was captured by the overexpression screen", "result": "Confirmed"},
      {"measurement": "Overexpression phenotype, Chemical-genetic profile", "setting": "[1]; gene ompT, whether the literature phenotype was captured by the overexpression screen", "result": "Confirmed"},
      {"measurement": "Average relative change in MIC", "setting": "[2]; mlaD overexpression strain relative to control (wild-type+empty vector), 3 replicates each, from optical density values of serial dilution plates, AMP in µg ml-1", "result": 0.70},
      {"measurement": "Relative MIC", "setting": "[2]; [4]", "result": 0.78},
      {"measurement": "Relative MIC", "setting": "[2]; [5]", "result": 0.78},
      {"measurement": "Relative MIC", "setting": "[2]; overexpression strain lptB, MIC of overexpression strain / MIC of empty-plasmid control", "result": 0.51},
      {"measurement": "Relative MIC", "setting": "[2]; overexpression strain mlaD, MIC of the overexpression strain / MIC of the control strain (wild-type carrying the empty plasmid)", "result": 0.72},
      {"measurement": "Relative MIC", "setting": "[2]; [6]", "result": 0.36},
      {"measurement": "Relative MIC", "setting": "[2]; [7]", "result": "<0.71"},
      {"measurement": "Relative MIC", "setting": "[2]; overexpression strain ompT, MIC of overexpression strain / MIC of empty-plasmid control", "result": ">2.5"},
      {"measurement": "Relative MIC", "setting": "[2]; overexpression strain ptsN, MIC of overexpression strain / MIC of empty-plasmid control", "result": 1.47},
      {"measurement": "Relative MIC", "setting": "[2]; [8]", "result": "<0.61"},
      {"measurement": "Relative MIC", "setting": "[2]; overexpression strain yhbJ, MIC of overexpression strain / MIC of empty-plasmid control", "result": 0.69},
      {"measurement": "Relative MIC", "setting": "[2]; overexpression strain ytjB, MIC of overexpression strain / MIC of empty-plasmid control", "result": 0.8},
      {"measurement": "Overexpression phenotype, Literature", "setting": "[3]; gene nlpE overexpressed, ref 6 (Griffin 2013)", "result": "Resistance^6"},
      {"measurement": "Overexpression phenotype, Literature", "setting": "[3]; gene ompT overexpressed, ref 4 (Stumpe et al. 1998)", "result": "Resistance^4"}
    ]},
    {"sequence": "RRRPRPPYLPRPRPPPFFPPRLPPRIPPGFPPRFPPRFP [PR39, PR-39, cathelicidin, source pig; cluster C4]", "values": [
      {"measurement": "Effect of folA overexpression on susceptibility", "setting": "[1]; gene folA (dihydrofolate reductase) overexpressed", "result": "resistance"},
      {"measurement": "Overexpression phenotype, Chemical-genetic profile", "setting": "[1]; gene ptrB, whether the literature phenotype was captured by the overexpression screen (9 out of 13 captured)", "result": "Confirmed"},
      {"measurement": "Overexpression phenotype, Chemical-genetic profile", "setting": "[1]; gene sbmA, whether the literature phenotype was captured by the overexpression screen", "result": "Confirmed"},
      {"measurement": "Relative MIC", "setting": "[2]; [4]", "result": 0.8},
      {"measurement": "Relative MIC", "setting": "[2]; [5]", "result": 1.32},
      {"measurement": "Relative MIC", "setting": "[2]; overexpression strain mhpA, MIC of overexpression strain / MIC of empty-plasmid control", "result": 0.78},
      {"measurement": "Relative MIC", "setting": "[2]; [6]", "result": 0.8},
      {"measurement": "Relative MIC", "setting": "[2]; [7]", "result": 0.8},
      {"measurement": "Relative MIC", "setting": "[2]; [8]", "result": 1.25},
      {"measurement": "Overexpression phenotype, Literature", "setting": "[3]; gene ptrB overexpressed, ref 2 (Mattiuzzo et al. 2014)", "result": "Resistance^2"},
      {"measurement": "Overexpression phenotype, Literature", "setting": "[3]; gene sbmA overexpressed, ref 9 (Pranting et al. 2008)", "result": "Sensitivity^9"}
    ]}
  ]
}
